Columns and labels:
MyLa cells = assay: XTT cell viability assay on MyLa cells, with Bliss synergy analysis; conditions: CBD 7.3 μg/ml, CBG 3.5 μg/ml, THC 0.044 μg/ml, CBC 0.027 μg/ml (as in S4 5 + S5 6 μg/mL), 48 hours
Method: (§1) XTT Cell Viability Assays—Cells were seeded in 96-wells plates at 10,000 cells per well in triplicates in DMEM or RPMI640 growing media. The following day, cells were treated with the different extracts, separated fractions and combinations thereof or pure compounds; or media or solvent only as control. To evaluate involvement of the CB1 and CB2 receptors, 10 μM of AM251 (a CB1 receptor inverse agonist, TOCRIS, 1117/1) or SR144528 (a CB2 receptor inverse agonist, Abcam) were added to the cells 1 hour prior to treatment. Cells were incubated for 48 hours and following XTT (2,3-bis(2-methoxy-4-nitro-5-sulfophenyl)-5-[(phenylamino)-carbonyl]-2H-tetrazolium inner salt) reduction was used to quantify viability according to manufacturer's instruction (BI, Kibbutz Beit-Haemek, Israel). Briefly, cells were incubated with XTT reagent for 2 hours at 37° C. in a humidified 5% CO2, 95% air atmosphere. Absorbance was recorded by a photometer Synergy H1 hybrid reader (BioTek) at 490 nm with 650 nm of reference wavelength. Cells survival was estimated according to the following equation: % cell survival=100×(At−Ac)(treatment)/(At−Ac)(control), where At and Ac are the absorbencies (490 nm) of the XTT colorimetric reaction in treated and control cultures, respectively, minus non-specific absorption measured at 650 nm. Absorbance of medium alone was also deducted from specific readings. […]

HUT78 cells = assay: XTT cell viability assay on HUT78 cells; assay type: cell-based, human; conditions: CBD only, concentration equal to that in combined S4+S5 (7.3 μg/ml), 48 hours
Method: as §1

In the case of `C=C(C)[C@@H]1CCC(C)=C[C@H]1c1c(O)cc(CCCCC)cc1O` [CBD, cannabidiol], the “cytotoxicity of pure cannabinoids on My-La cells (in words)” value (MyLa cells) is reported as “did not induce cell death” and the “cell death of HuT-78 cells” value (HUT78 cells) is reported as 50%.
